Assays:
Conditions in all cases: stereoisomer not certain
[1] = RP, 150 × 2.1 mm, 2.6 µm, 40 °C, 0.35 mL/min, estimated dead time 0.94 min; A: water + 0.1% formic acid, pH 3; B: acetonitrile + 0.1% formic acid, pH 3; gradient (min/%B) 0/0 1/0 12.5/100 14/100 14.2/0 15/0
[2] = RP, 150 × 2.1 mm, 2.6 µm, 40 °C, 0.35 mL/min, estimated dead time 0.94 min; A: water + 0.1% formic acid, pH 3; B: acetonitrile + 0.1% formic acid, pH 3; gradient (min/%B) 0/0 1/5 7/45 8.5/80 10.5/80 11/5 12/5
[3] = RP, Waters ACQUITY UPLC BEH Shield RP18, 150 × 2.1 mm, 1.7 µm, 40 °C, 0.4 mL/min, estimated dead time 0.83 min; A: water + 0.1% formic acid, pH 3; B: acetonitrile + 0.1% formic acid, pH 3; gradient (min/%B) 0/0 30/50 31/100 37/100 37.1/0
[4] = RP, Phenomenex Synergi Hydro-RP, 250 × 2 mm, 4 µm, 25 °C, 0.2 mL/min, estimated dead time 2.5 min; A: water + 0.1% formic acid, pH 3; B: acetonitrile + 0.1% formic acid, pH 3; gradient (min/%B) 0/0.5 7/0.5 12/12.5 25/16.3 47/35 48/65 50/65 50.1/0.5
[5] = RP, Phenomenex Kinetex EVO C18, 100 × 2.1 mm, 2.6 µm, 40 °C, 0.4 mL/min, estimated dead time 0.55 min; A: water + 0.2% formic acid; B: acetonitrile + 0.2% formic acid; gradient (min/%B) 0/5 0.5/5 7/95 8/95 8.5/5 12/5
[6] = RP, Agilent ZORBAX RRHD Eclipse Plus C18, 50 × 2.1 mm, 1.8 µm, 30 °C, 0.4 mL/min, estimated dead time 0.28 min; A: water + 0.1% formic acid, pH 3; B: acetonitrile + 0.1% formic acid, pH 3; gradient (min/%B) 0/1 5/10 8/25 9.1/99 10/99 12/1
[7] = RP, Agilent ZORBAX RRHD Eclipse Plus C18, 50 × 2.1 mm, 1.8 µm, 30 °C, 0.4 mL/min, estimated dead time 0.28 min; A: water + 0.1% formic acid, pH 3; B: acetonitrile + 0.1% formic acid, pH 3; gradient (min/%B) 0/1 5/10 8/25 9.1/99 10/99 12/99
[8] = RP, Waters ACQUITY UPLC HSS T3, 100 × 2.1 mm, 50 °C; A: water + 0.1% formic acid, pH 3; B: 30% methanol + 70% acetonitrile + 0.1% formic acid, pH 3; gradient (min/%B) 0/5 1/8 2/15 3/40 4/70 4.5/100 5/100 6.4/100 6.6/5 6.8/5 7/5
[9] = RP, Agilent ZORBAX Eclipse XDB-C18, 100 × 2.1 mm, 1.8 µm, 50 °C, 0.4 mL/min, estimated dead time 0.55 min; A: water + 0.1% formic acid, pH 3; B: methanol + 0.1% formic acid, pH 3; gradient (min/%B) 0/2 10/100 14.5/100 14.51/2 16.5/2
[10] = RP, Waters ACQUITY UPLC BEH C18, 100 × 2.1 mm, 1.7 µm, 65 °C, 0.4 mL/min, estimated dead time 0.55 min; A: water + 0.1% formic acid, pH 3; B: 80% acetonitrile + 20% acetone + 0.1% formic acid, pH 3; gradient (min/%B) 0/0 5/100 5.5/0 6/0
[11] = RP, Agilent InfinityLab Poroshell 120 EC-C18, 100 × 3 mm, 2.7 µm, 25 °C, 0.4 mL/min, estimated dead time 1.1 min; A: water + 0.1% formic acid, pH 3; B: acetonitrile + 0.1% formic acid, pH 3; gradient (min/%B) 0/5 10/25 20/40 24/90 25/90 26/5 30/5

In the case of `O=c1c(OC2OC(CO)C(O)C(O)C2O)c(-c2ccc(O)cc2)oc2cc(O)cc(O)c12` (centres undefined) [Kaempferol-3-O-glucoside], the LC retention time [1] is reported as 5.95 min, the LC retention time [2] is reported as 6.11 min and the LC retention time [3] is reported as 14.7 min.
For `CC1OC(OCC2OC(Oc3c(-c4ccc(O)cc4)oc4cc(O)cc(O)c4c3=O)C(O)C(O)C2O)C(O)C(O)C1O` (centres undefined) [Kaempferol 3-O-rutinoside], the LC retention time [1] was 5.78 min, the LC retention time [2] was 5.92 min and the LC retention time [4] was 37 min.
In the case of `COc1ccc(CCC(=O)O)cc1OC1OC(C(=O)O)C(O)C(O)C1O` (centres undefined) [Dihydro isoferulic acid-3-O-glucuronide], the LC retention time [5] is reported as 4.22 min, the LC retention time [6] is reported as 6.49 min and the LC retention time [7] is reported as 6.53 min.
For `COc1cc(CCC(=O)O)ccc1OS(=O)(=O)O` [Dihydroferulic acid-4-O-Sulfate], the LC retention time [5] was 4.36 min, the LC retention time [6] was 5.86 min and the LC retention time [7] was 4.05 min.
Compound `O=C1CCC(Cc2ccc(O)c(OS(=O)(=O)O)c2)O1` (centres undefined) [5-(4'-Hydroxyphenyl)-gamma-valerolactone-3'-sulfate] has an LC retention time [5] of 4.64 min.
`O=C(O)CCc1c[nH]c2ccccc12` [3-Indolepropionic acid] gave an LC retention time [1] of 7.09 min, an LC retention time [2] of 7.34 min and an LC retention time [8] of 3.76 min. It also gave an LC retention time [9] of 5.54 min and an LC retention time [10] of 2.64 min.
Work on `O=Cc1ccc(O)c(O)c1` [3,4-Dihydroxybenzaldehyde] yielded an LC retention time [5] of 2.18 min, an LC retention time [6] of 4.12 min and an LC retention time [7] of 3.73 min.
With `O=C1CCC(Cc2ccc(O)c(O)c2)O1` (centres undefined) [5-(3',4'-Dihydroxyphenyl)-gamma-valerolactone] the LC retention time [5] was 4.13 min.
`COc1ccc(C2CC(=O)c3c(O)cc(O)cc3O2)cc1OC1OC(C(=O)O)C(O)C(O)C1O` (centres undefined) [Hesperetin 3'-O-glucuronide] showed an LC retention time [5] of 5.32 min and an LC retention time [11] of 12.2 min.
Compound `COc1cc(C=CC(=O)NCC(=O)O)ccc1O` [Feruloylglycine] has an LC retention time [5] of 4.33 min.
`O=c1oc2cc(O)ccc2c2cc(O)c(O)cc12` [Urolithin C] showed an LC retention time [5] of 5.11 min and an LC retention time [11] of 10.3 min.
Compound `O=C(O)C1OC(Oc2ccc(C=Cc3cc(O)cc(O)c3)cc2)C(O)C(O)C1O` (centres undefined) [Resveratrol 4-O-glucuronide] has an LC retention time [5] of 4.64 min and an LC retention time [11] of 9.05 min.
`O=C(NC(O)C(=O)O)c1ccccc1` (stereo not drawn) [Alpha-hydroxyhippuric acid] showed an LC retention time [1] of 3.62 min, an LC retention time [2] of 3.34 min and an LC retention time [6] of 2.97 min. The LC retention time [7] was 1.37 min.
In the case of `O=C1CCC(Cc2cccc(OS(=O)(=O)O)c2)O1` (centres undefined) [5-Phenyl-gamma-valerolactone-3'-sulfate], the LC retention time [5] is reported as 4.96 min.
Work on `O=C1CCC(Cc2cc(O)cc(O)c2)O1` (centres undefined) [5-(3',5'-Dihydroxyphenyl)-gamma-valerolactone] yielded an LC retention time [5] of 3.72 min.
`O=C(O)c1ccc(OC2OC(C(=O)O)C(O)C(O)C2O)c(O)c1` (centres undefined) [Protocatechuic acid-4-glucuronide] showed an LC retention time [5] of 1.03 min.
Work on `O=C(O)CNC(=O)c1ccccc1O` [2-Hydroxyhippuric acid] yielded an LC retention time [1] of 5.5 min, an LC retention time [2] of 5.38 min and an LC retention time [6] of 6.83 min. The LC retention time [7] was 6.69 min.
For `O=C(O)c1ccc(OS(=O)(=O)O)c(O)c1` [Protocatechuic acid-4-O-sulfate], the LC retention time [5] was 2.38 min, the LC retention time [6] was 2.44 min and the LC retention time [7] was 0.954 min.
With `COc1cc(C=CC(=O)O)ccc1OC1OC(C(=O)O)C(O)C(O)C1O` (centres undefined) [Ferulic acid-4-O-glucuronide] the LC retention time [5] was 3.62 min, the LC retention time [6] was 4.81 min and the LC retention time [7] was 3.24 min.
Compound `O=C(O)C1OC(Oc2ccc3c(c2)oc(=O)c2ccccc23)C(O)C(O)C1O` (centres undefined) [Urolithin B-3-O-glucuronide] has an LC retention time [5] of 5.23 min and an LC retention time [11] of 11.6 min.
`COc1cc(-c2oc3cc(O)cc(O)c3c(=O)c2O)ccc1OC1OC(C(=O)O)C(O)C(O)C1O` (centres undefined) [Isorhamnetin 4'-O-glucuronide] showed an LC retention time [1] of 6.03 min, an LC retention time [2] of 6.21 min and an LC retention time [8] of 3.58 min.
Work on `O=C(O)c1ccc(OS(=O)(=O)O)cc1` [Hydroxybenzoic acid-4-sulfate] yielded an LC retention time [5] of 2.55 min.
With `O=c1oc2c(O)c(O)ccc2c2cc(O)c(O)cc12` [Urolithin  D] the LC retention time [5] was 4.68 min and the LC retention time [11] was 8.24 min.
In the case of `O=C1CC(c2ccc(O)cc2)Oc2cc(OC3OC(C(=O)O)C(O)C(O)C3O)cc(O)c21` (centres undefined) [Naringenin-7-O-glucuronide], the LC retention time [5] is reported as 5.12 min.
With `COc1cc(C(=O)O)ccc1OS(=O)(=O)O` [Vanillic acid-4-O-sulfate] the LC retention time [5] was 3.13 min, the LC retention time [6] was 3.82 min and the LC retention time [7] was 2 min.
With `O=C(O)CCc1ccc(O)c(OS(=O)(=O)O)c1` [Dihydrocaffeic acid-3-O-sulfate] the LC retention time [5] was 4.04 min, the LC retention time [6] was 5.08 min and the LC retention time [7] was 2.83 min.
For `O=C(O)C1OC(Oc2cc(O)cc(C=Cc3ccc(O)cc3)c2)C(O)C(O)C1O` (centres undefined) [Resveratrol 3-O-glucuronide], the LC retention time [5] was 4.85 min and the LC retention time [11] was 11 min.
With `O=C(O)C=Cc1ccc(OC2OC(C(=O)O)C(O)C(O)C2O)c(O)c1` (centres undefined) [Caffeic acid-4-glucuronide] the LC retention time [5] was 2.45 min, the LC retention time [6] was 3.98 min and the LC retention time [7] was 1.78 min.
With `O=S(=O)(O)Oc1cc(O)cc(C=Cc2ccc(O)cc2)c1` [Resveratrol 3-O-sulfate] the LC retention time [5] was 5.89 min and the LC retention time [11] was 8.93 min.
`O=C1CCC(Cc2cccc(OC3OC(C(=O)O)C(O)C(O)C3O)c2)O1` (centres undefined) [5-Phenyl-gamma-valerolactone-3'-glucuronide] gave an LC retention time [5] of 4.31 min.
With `O=C(O)CCc1ccc(O)c(OC2OC(C(=O)O)C(O)C(O)C2O)c1` (centres undefined) [Dihydrocaffeic acid-3-O-glucuronide] the LC retention time [5] was 3.22 min, the LC retention time [6] was 5.11 min and the LC retention time [7] was 3.94 min.
Work on `COc1ccc(C(=O)O)cc1OC1OC(C(=O)O)C(O)C(O)C1O` (centres undefined) [Isovanillic acid-3-glucuronide] yielded an LC retention time [5] of 2.34 min.
In the case of `O=C(O)c1ccc(OC2OC(C(=O)O)C(O)C(O)C2O)cc1` (centres undefined) [Hydroxybenzoic acid-4-glucuronide], the LC retention time [5] is reported as 1.06 min.
`O=C(O)c1ccc(O)c(OC2OC(C(=O)O)C(O)C(O)C2O)c1` (centres undefined) [Protocatechuic acid-3-O-glucuronide] showed an LC retention time [5] of 1.44 min, an LC retention time [6] of 2.8 min and an LC retention time [7] of 1.12 min.
In the case of `COc1ccc(C(=O)O)cc1OS(=O)(=O)O` [Isovanillic acid-3-O-sulfate], the LC retention time [5] is reported as 3.68 min, the LC retention time [6] is reported as 3.98 min and the LC retention time [7] is reported as 3.47 min.
`O=C1CCC(Cc2cc(O)cc(OC3OC(C(=O)O)C(O)C(O)C3O)c2)O1` (centres undefined) [5-(5'-Hydroxyphenyl)-gamma-valerolactone-3'-glucuronide] gave an LC retention time [5] of 2.34 min.
Compound `O=C(O)c1ccc(O)c(OS(=O)(=O)O)c1` [protocatechuic acid-3-O-sulfate] has an LC retention time [5] of 2.38 min.
In the case of `O=C1CC(c2ccc(OC3OC(C(=O)O)C(O)C(O)C3O)cc2)Oc2cc(O)cc(O)c21` (centres undefined) [Naringenin-4'-O-glucuronide], the LC retention time [5] is reported as 5.18 min.
For `COc1cc(C=CC(=O)O)ccc1OS(=O)(=O)O` [Ferulic acid 4-O-sulfate], the LC retention time [5] was 4.59 min, the LC retention time [6] was 6.22 min and the LC retention time [7] was 4.67 min.
With `COc1ccc(C=CC(=O)O)cc1OS(=O)(=O)O` [Isoferulic acid 3-O-sulfate] the LC retention time [5] was 4.79 min, the LC retention time [6] was 6.76 min and the LC retention time [7] was 5.94 min.
